The values that follow come from patent US10253000B2, “Pyridazin-3(2H)-one derivatives as monoamine oxidase selective isoform B inhibitors” (UNIVERSIDADE DE VIGO, priority 2014, dated 2019).

The IC50 is the concentration at which inhibition is half-maximal.

One experiment has as its target T1, human recombinant MAO-B (Homo sapiens, UniProt P27338).
T1 construct: purchased Sigma-Aldrich Química S.A., Alcobendas, Spain; host or cells: insect cells (BTI-TN-5B1-4) infected with recombinant baculovirus
T1 sequence (P27338 1-520): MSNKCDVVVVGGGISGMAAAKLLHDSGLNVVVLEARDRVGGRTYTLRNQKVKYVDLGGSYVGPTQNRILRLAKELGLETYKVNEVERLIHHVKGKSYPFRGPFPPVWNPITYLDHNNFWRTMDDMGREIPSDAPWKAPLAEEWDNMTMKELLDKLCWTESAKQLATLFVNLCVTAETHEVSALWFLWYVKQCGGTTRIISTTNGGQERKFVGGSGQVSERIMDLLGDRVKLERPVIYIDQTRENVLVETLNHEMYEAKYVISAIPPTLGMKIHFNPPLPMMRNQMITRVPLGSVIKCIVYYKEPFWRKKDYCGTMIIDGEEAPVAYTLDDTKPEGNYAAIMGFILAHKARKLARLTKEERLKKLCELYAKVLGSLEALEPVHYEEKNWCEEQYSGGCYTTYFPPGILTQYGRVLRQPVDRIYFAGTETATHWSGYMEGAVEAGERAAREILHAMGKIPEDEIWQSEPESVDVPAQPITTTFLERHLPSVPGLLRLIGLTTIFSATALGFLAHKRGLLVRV
Put plainly: Determination of MAO isoforms activity (Amplex Red, p-tyramine), MAO-B. It is filed as biochemical. The conditions noted are these: for S.I. Selectivity index hMAO-B = IC50 (hMAO-A)/IC50 (hMAO-B): bounds calculated taking the highest concentration studied (100 μM or 1 mM) as IC50; for IC50: read-out: IC50 hMAO-B.

A further experiment concerns the target T2, human recombinant MAO-A (Homo sapiens, UniProt P21397).
T2 construct: purchased Sigma-Aldrich Química S.A., Alcobendas, Spain; host or cells: insect cells (BTI-TN-5B1-4) infected with recombinant baculovirus
T2 sequence (P21397 1-527): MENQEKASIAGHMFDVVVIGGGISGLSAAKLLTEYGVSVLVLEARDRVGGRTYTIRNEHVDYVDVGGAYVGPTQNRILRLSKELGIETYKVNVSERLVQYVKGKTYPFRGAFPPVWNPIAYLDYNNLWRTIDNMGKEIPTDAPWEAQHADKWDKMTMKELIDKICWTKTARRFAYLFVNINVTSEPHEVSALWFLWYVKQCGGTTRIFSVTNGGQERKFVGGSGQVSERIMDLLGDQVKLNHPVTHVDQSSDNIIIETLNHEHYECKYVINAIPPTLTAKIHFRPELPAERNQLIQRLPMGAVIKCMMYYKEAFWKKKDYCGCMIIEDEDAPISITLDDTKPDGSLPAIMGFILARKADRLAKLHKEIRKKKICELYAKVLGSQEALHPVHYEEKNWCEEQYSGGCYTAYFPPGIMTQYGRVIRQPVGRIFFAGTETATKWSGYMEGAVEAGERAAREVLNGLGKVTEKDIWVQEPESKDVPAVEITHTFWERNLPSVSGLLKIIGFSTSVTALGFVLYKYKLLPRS
Put plainly: Determination of MAO isoforms activity (Amplex Red, p-tyramine), MAO-A. The conditions noted are these: read-out: IC50 hMAO-A. It is filed as biochemical.

The mark [1] stands for this setting: human recombinant MAO-B, p-tyramine 1 mM, mean ± spread of 5 experiments.

Where two headings read alike, the source gives them in different places. Marks after values point to notes of the source that are not given here.

Consider `Cc1cc(=O)n(C)nc1CSC(=S)N1CCCCC1` [Id4, 1,4-dimethyl-6-oxo-1,6-dihydropyridazin-3-ylmethyl Piperidin-1-ylcarbodithioate], for which, at human recombinant MAO-B, the “S.I. Selectivity index hMAO-B = IC50 (hMAO-A)/IC50 (hMAO-B)” value (“S.I. Selectivity index hMAO-B = IC50” for short) was 13.4. At human recombinant MAO-B (setting [1]), the IC50 is 7.48 ± 0.34 µM.

On to `O=c1c(CSC(=S)N2CCCC2)ccnn1Cc1ccccc1` [IIIc3, 1-benzyl-6-oxo-1,6-dihydropyridazin-5-ylmethyl Pyrrolidin-1-ylcarbodithioate], for which the “S.I. Selectivity index hMAO-B = IC50” value at human recombinant MAO-B is reported as >2.9^b. Also, the results for the IC50 at human recombinant MAO-B (setting [1]) and on human recombinant MAO-A were 34 ± 2.26 µM and > 100 µM, respectively.

For the compound `Cc1cc(=O)n(C)nc1CSC(=S)N1CCCC1` [Id3, 1,4-dimethyl-6-oxo-1,6-dihydropyridazin-3-ylmethyl Pyrrolidin-1-ylcarbodithioate], the IC50 at human recombinant MAO-B was > 1000 µM; on human recombinant MAO-A, > 100 µM.

Regarding `O=C(c1ccccc1)N1CCN(C(=S)SCc2cnn(Cc3ccccc3)c(=O)c2)CC1` [IIc11, 1-benzyl-6-oxo-1,6-dihydropyridazin-4-ylmethyl 4-benzoylpiperazin-1-ylcarbodithioate], the IC50 at human recombinant MAO-B and on human recombinant MAO-A was > 100 µM throughout.

For the compound `CCN(CC)C(=S)SCc1cnn(Cc2ccccc2)c(=O)c1` [IIc2, 1-benzyl-6-oxo-1,6-dihydropyridazin-4-ylmethyl N,N-diethyldithiocarbamate], the “S.I. Selectivity index hMAO-B = IC50” value at human recombinant MAO-B is >2.3^b. The values for the IC50 on human recombinant MAO-B (setting [1]) and at human recombinant MAO-A were 44.2 ± 2.95 µM and > 100 µM, respectively.

On to `O=c1c(CSC(=S)N2CCOCC2)ccnn1Cc1ccccc1` [IIIc5, 1-benzyl-6-oxo-1,6-dihydropyridazin-5-ylmethyl Morpholin-4-ylcarbodithioate], for which the “S.I. Selectivity index hMAO-B = IC50” value on human recombinant MAO-B is listed as >4.2^b. Moreover, the IC50 on human recombinant MAO-B (setting [1]) is 24.1 ± 1.6 µM; at human recombinant MAO-A it was > 100 µM.

Regarding `Cc1cc(=O)n(C)nc1CSC(=S)N1CCOCC1` [Id5, 1,4-dimethyl-6-oxo-1,6-dihydropyridazin-3-ylmethyl morpholin-4-ylcarbodithioate], the “S.I. Selectivity index hMAO-B = IC50” value on human recombinant MAO-B is 2.6. Moreover, the IC50 at human recombinant MAO-B (setting [1]) came out at 38.6 ± 1.74 µM.

Consider `O=c1cc(CSC(=S)N2CCOCC2)cnn1Cc1ccccc1` [IIc5, 1-benzyl-6-oxo-1,6-dihydropyridazin-4-ylmethyl Morpholin-4-ylcarbodithioate], for which, on human recombinant MAO-A, the concentration for half-maximal inhibition (IC50) is > 100 µM.

Turning to `O=c1cc(CSC(=S)N2CCCC2)cnn1Cc1ccccc1` [IIc3, 1-benzyl-6-oxo-1,6-dihydropyridazin-4-ylmethyl Pyrrolidin-1-ylcarbodithioate], the “S.I. Selectivity index hMAO-B = IC50” value on human recombinant MAO-B is 10.3. Further, the IC50 at human recombinant MAO-B (setting [1]) turned out to be 9.68 ± 0.65 µM.

On to `O=C(c1ccccc1)N1CCN(C(=S)SCc2ccnn(Cc3ccccc3)c2=O)CC1` [IIIc11, 1-benzyl-6-oxo-1,6-dihydropyridazin-5-ylmethyl 4-benzoylpiperazin-1-ylcarbodithioate], for which the IC50 at human recombinant MAO-B and at human recombinant MAO-A was > 100 µM in each case.

For `Cn1nc(CCSC(=S)N2CCCCC2)ccc1=O` [Ia15, 2-(1-methyl-6-oxo-1,6-dihydropyridazin-3-yl)ethyl Piperidin-1-ylcarbodithioate], the “S.I. Selectivity index hMAO-B = IC50” value on human recombinant MAO-B is >8.4^b. For the same compound, the half-maximal inhibitory concentration (IC50) at human recombinant MAO-B (setting [1]) was 11.9 ± 0.53 µM; at human recombinant MAO-A, > 100 µM.

In the case of `Cn1nc(CCCSC(=S)N2CCCC2)ccc1=O` [Ia25, 3-(1-methyl-6-oxo-1,6-dihydropyridazin-3-yl)propyl Pyrrolidin-1-ylcarbodithioate], the “S.I. Selectivity index hMAO-B = IC50” value on human recombinant MAO-B is >1.5^b. Further, the values for the half-maximal inhibitory concentration (IC50) at human recombinant MAO-B (setting [1]) and on human recombinant MAO-A were 66.5 ± 4.43 µM and > 100 µM, respectively.

Take `O=c1cc(CSC(=S)N2CCCCC2)cnn1Cc1ccccc1` [IIc4, 1-benzyl-6-oxo-1,6-dihydropyridazin-4-ylmethyl Piperidin-1-ylcarbodithioate]: the “S.I. Selectivity index hMAO-B = IC50” value at human recombinant MAO-B is recorded as >15^b. The half-inhibitory concentration (IC50) on human recombinant MAO-B (setting [1]) is 6.71 ± 0.45 µM; on human recombinant MAO-A, > 100 µM.

As to `Cc1cc(=O)n(C)nc1CSC(=S)N1CCN(C(=O)c2ccccc2)CC1` [Id11, 1,4-dimethyl-6-oxo-1,6-dihydropyridazin-3-ylmethyl 4-benzoylpiperazin-1-ylcarbodithioate], at human recombinant MAO-B, the “S.I. Selectivity index hMAO-B = IC50” value was 2.2. Moreover, at human recombinant MAO-B (setting [1]), the half-inhibitory concentration (IC50) was found to be 44.5 ± 2 µM.
